The values below are quoted from earlier work in patent US20160361342A1, “USE OF ALGINATE OLIGOMERS IN THE TREATMENT OF CYSTIC FIBROSIS AND OTHER CONDITIONS ASSOCIATED WITH DEFECTIVE CFTR ION CHANNEL FUNCTION” (ALGIPHARAMA AS, priority 2014, published 2016).

Molecules are shown by their SMILES.

This series has as its system ileum explants from mutant mice. Conditions: apical medium supplemented with sodium bicarbonate at levels predicted to be reached by wild type CFTR.

For the molecule `O=C([O-])O.[Na+]` [sodium bicarbonate], the attached mucus phenotype entry is “can be reversed”.
